# Experimental data reported in patent publication USRE40233E1, “Viral variants and methods for detecting same” (Melbourne Health, priority 1996, dated 2008).
# Assays:
# [1] = system: HBV DNA polymerase-reverse transcriptase; conditions: in vitro; cited from earlier work
# duck HBV = conditions: in vitro; cited from earlier work
# duck HBV virus = conditions: oral, in vivo; cited from earlier work
# HBV [2] = test: response to antiviral treatment, patient C; type: in vivo, Hepatitis B Virus
# Description: Patient B was undergoing long term famciclovir treatment (>850 days). The amino acid change selected during famciclovir treatment is shown as HBV (patient B) in FIG. 5. […] The HBV isolated during FCV treatment from patient C, is shown as HBV (patient C-FCV). All 3TC resistance mutations which developed during treatment with 3TC is shown as HBV (patient C-3TC). […] A mutation of Met 550 to Ile in the YMDD motif was detected from HBV isolated 32 days (333 days post treatment) after the HBV containing the Thr-Ser substitution was isolated.
# HBV [3] = test: serum HBV DNA level during antiviral therapy, patient A (post-OLT); type: in vivo, Hepatitis B Virus
# Description: The patient was transplanted because of end-stage liver failure due to chronic HBV infection. The initial post transplant course was unremarkable but by 5 months there was evidence of recurrent infection and very high levels of viral replication and deteriorating liver function (12). The histological picture was consistent with fibrosing cholestatic hepatitis. Antiviral treatment was commenced approximately 6 months post-OLT. Initially, the patient received intravenous (iv) ganciclovir (GCV; 10 mg/kg/day) in combination with iv foscarnet (PFF; 50-125 mg/kg/day; the dose depending on renal function) (12). This is the treatment of GCV+PFF described in FIG. 2 which lasted for 86 days. Maintenance iv GCV (3.3-6.7 mg/kg/day) three times per week was commenced on day 87 of antiviral treatment (GCV in FIG. 2). Oral famciclovir (250 mg, twice daily) was commenced on day 446 of therapy (FCV [I] in FIG. 2) which was increased to 500 mg twice daily (FCV [II] in […]) on day 500. The patient is currently on this treatment regime. The clinical and virological details of this patient preceding famciclovir therapy have been reported (12).
# Serum samples were routinely collected and stored at −70° C. Informed consent was obtained from the patient to use these samples for research purposes. […] The 5 samples chosen for additional studies cover a period of almost four years.
# Hepatitis B surface antigen (HbsAg), hepatitis B e antigen (HbeAg), anti-HBe, hepatitis B core antigen (HbcAg) specific IgG and IgM, hepatitis A specific IgM, hepatitis delta antigen and antibody, and anti-hepatitis C virus antibody were measured using commercially available immunoassays (Abbott Laboratories, North Chicago, Ill.). Only the HBV markers were positive. Hepatitis B viral DNA levels were measured and quantified using a capture hybridisation assay according to the manufacturer's directions (Digene Diagnostics Inc., Beltsville, Md.).
# This reduction in viraemia was associated with clinical, biochemical and histological improvement (12). […] However, the level of HBV DNA gradually rose over time from 3,000 pg/ml on day 600 (154 days of famciclovir), to 8,800 pg/ml on day 816 (370 days famciclovir), peaking at 29,000 pg/ml on day 1302 (856 days of famciclovir), then stabilising at around 12,000 pg/ml on day 1329 (883 days of famciclovir). […] There was a 1.5 to 2 fold rise in ALT levels over the same time interval (FIG. 2) and no change in clinical status.
# HBV [4] = conditions: in man, patient with severe hepatitis B following OLT; cited from earlier work
# HBV DNA polymerase [5] = target: T1, HBV DNA polymerase (Hepatitis B virus genotype D subtype ayw, UniProt P03156, L515M/V508L); test: endogenous HBV DNA polymerase assay, PCV-TP sensitivity; type: biochemical; conditions: 100 μmol/L PCV-TP, serum HBV of patient A
# T1 construct: Small aliquots of the suspension were assayed for endogenous HBV DNA polymerase activity; from tissue; host or cells: patient serum; virions pelleted through a 20% sucrose cushion and treated with Triton X-100
# T1 sequence (P03156 whole entry V508L/L515M): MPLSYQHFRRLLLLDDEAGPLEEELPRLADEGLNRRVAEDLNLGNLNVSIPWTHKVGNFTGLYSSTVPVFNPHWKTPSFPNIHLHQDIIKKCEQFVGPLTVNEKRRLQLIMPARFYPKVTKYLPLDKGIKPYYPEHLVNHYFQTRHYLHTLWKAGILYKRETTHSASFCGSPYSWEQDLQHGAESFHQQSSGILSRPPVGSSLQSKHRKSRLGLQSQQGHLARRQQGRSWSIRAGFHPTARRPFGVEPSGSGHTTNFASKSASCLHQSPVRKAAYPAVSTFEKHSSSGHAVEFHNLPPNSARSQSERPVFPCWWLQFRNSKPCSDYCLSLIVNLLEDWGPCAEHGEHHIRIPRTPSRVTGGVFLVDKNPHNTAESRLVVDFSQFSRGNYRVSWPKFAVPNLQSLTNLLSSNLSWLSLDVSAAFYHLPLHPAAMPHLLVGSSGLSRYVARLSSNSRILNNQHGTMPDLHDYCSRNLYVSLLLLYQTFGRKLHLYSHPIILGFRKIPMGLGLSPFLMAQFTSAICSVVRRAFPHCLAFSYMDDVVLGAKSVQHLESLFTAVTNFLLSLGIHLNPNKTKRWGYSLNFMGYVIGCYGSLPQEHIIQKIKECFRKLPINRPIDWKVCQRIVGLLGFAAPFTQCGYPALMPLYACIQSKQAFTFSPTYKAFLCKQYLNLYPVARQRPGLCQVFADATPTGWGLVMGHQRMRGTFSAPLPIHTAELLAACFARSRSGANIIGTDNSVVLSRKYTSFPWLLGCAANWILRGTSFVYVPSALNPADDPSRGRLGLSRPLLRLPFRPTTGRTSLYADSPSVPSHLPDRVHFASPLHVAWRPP
# Experimental: (§1) Samples of serum (100 μl) were applied to a 20% w/v sucrose cushion in TNE (20 mmol/L Tris-HCl pH 7.4, 150 mmol/L NaCl2 1 mmol/L EDTA) and centrifuged at 200,000 g for 3 hr at 10° C. using an SW41 rotor in a Beckman Model L8 ultracentrifugc. The pellet was resuspended in 50 mmol/L TRIS-HCl pH 7.5 containing 1.5% v/v Triton-X100, 100 mmol/L Kcl and 0.01% v/v 2-mercaptoethanol and allowed to stand overnight at 4° C. Small aliquots of the suspension were assayed for endogenous HBV DNA polymerase activity essentially as described by Price et al (16). Each assay was performed in a total volume of 30 μl which contained 20 μl of the partly purified HBV and (final concentrations) 30 mmol/L Tris-HCl pH 7.5, 30 mmol/L MgCl2, 10 μmol/L each dATP, dTTP and dGTP, and 0.01 μM [α-^32P]-dCTP (3,000 Ci/mmol) (Dupont NEN, Boston, Mass.). To test for penciclovir triphosphate (PCV-TP) sensitivity, paired assays were performed on each sample, with an excess (100 μmol/L penciclovir-triphosphate included in the reaction mixture in one assay of each pair. After 2 hr at 37° C., reactions were stopped by spotting 20 μl aliquots of each reaction mix onto 25 mm diameter glass fibre discs (Advantex, Tokyo, Japan) which had been pre-soaked in 10% w/v trichloroacetic acid (TCA). Discs were dried before washing in ice-cold 10% w/v TCA containing 10 mmol/L sodium pyrophosphate.
# (§2) Three further 10 min. washes in cold 5% v/v TCA followed. The washed discs were finally rinsed in absolute ethanol, air dried, and counted for radioactivity. Inhibition of HBV DNA polymerase activity by PCV-TP was expressed as the percentage difference in activity in the assay mix containing PCV-TP compared to the matched control. Because of limited sample amounts, it was not possible to standardize enzyme activity or to perform replicate assays. Despite the inherent variability of the assay, a general time related decrease in sensitivity of the HBV DNA polymerase to PCV-TP was evident (see Table 1).
# HBV DNA polymerase [6] = test: as above; type: biochemical, Hepatitis B Virus; conditions: 100 μmol/L PCV-TP, serum HBV of patient A
# Experimental: as §1, §2
compound,measurement,setting,value
"Nc1nc2c(ncn2CCC(CO)CO)c(=O)[nH]1 [Peniciclovir, penciclovir]",HBV DNA polymerase-reverse transcriptase activity,[1],inhibit
same,activity against duck HBV DNA synthesis,duck HBV,potent inhibitory activity
CC(=O)OCC(CCn1cnc2cnc(N)nc21)COC(C)=O [famciclovir],intra-hepatic replication of duck HBV virus,duck HBV virus,inhibit
same,response to treatment,HBV [2],did not respond
same,level of HBV DNA,HBV [3]; day 600 (154 days of famciclovir),"3,000 pg/ml"
same,level of HBV DNA,HBV [3]; day 816 (370 days famciclovir),"8,800 pg/ml"
same,level of HBV DNA,"HBV [3]; day 1302 (856 days of famciclovir), peak","29,000 pg/ml"
same,level of HBV DNA,HBV [3]; day 1329 (883 days of famciclovir),"around 12,000 pg/ml"
same,HBV DNA change,HBV [3]; dose increase to 500 mg twice daily on day 500 (FCV[II]),decrease in HBV DNA
same,HBV DNA change,HBV [3]; switch to oral famciclovir 250 mg twice daily on day 446 (FCV[I]),rise in HBV DNA
same,HBV DNA replication,HBV [4],reduce HBV DNA replication
"Nc1nc(O)c2ncn(COC(CO)CO)c2n1 [GCV, ganciclovir]",levels of HBV DNA,"HBV [3]; maintenance iv GCV from day 87, over 359 days",fluctuating levels of HBV DNA
penciclovir triphosphate [PCV-TP],Inhibition of HBV DNA polymerase by PCV-TP,"HBV DNA polymerase [5]; day 816 of antiviral treatment (370 days famciclovir), Val519Leu/Leu526Met",0%
same,Inhibition of HBV DNA polymerase by PCV-TP,HBV DNA polymerase [5]; day 1329 of antiviral treatment (883 days famciclovir),0%
same,Inhibition of HBV DNA polymerase by PCV-TP,HBV DNA polymerase [6]; day 600 of antiviral treatment (154 days famciclovir),30%
same,Inhibition of HBV DNA polymerase by PCV-TP,HBV DNA polymerase [6]; pretreatment sample,40%
